The test system of one series is K. pneumoniae NCTC7427. The series can be described thus: MIC susceptibility testing, broth microdilution in CaMHB. The series is classed as cell-based, Klebsiella pneumoniae. In a few lines: (§1)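 Colonies from fresh MHA grown overnight in CaMHB at 37° C, 250 rpm for 18-20 hours, diluted 100-fold and regrown to OD600 0.2-0.3 […]. Actively growing culture diluted 100-fold in fresh medium as inoculum; assays run in duplicate.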
(Dilution methods test growth across graded concentrations, often in twofold steps.)

In the next series the test system is K. pneumoniae NCTC8172. The series is described as above. The series is classed as cell-based, Klebsiella pneumoniae. In a few lines:
as §1

Another series concerns K. pneumoniae ATCC 4352. The description is as above. The series is classed as cell-based, Klebsiella pneumoniae. In a few lines: as §1
Series [1] concerns K. pneumoniae ATCCBAA-1706. Described as above. Type of series: cell-based, Klebsiella pneumoniae. In a few lines: as §1
In another series the test system is E. coli NCTC9001. The description is as above. The series is classed as cell-based, Escherichia coli. In a few lines:
as §1

The next series deals with E. coli NCTC12900. The description is as above. The series is classed as cell-based, Escherichia coli. In a few lines: as §1
The subject of the next series is E. coli ATCC700928. The series is described as above. The series is classed as cell-based, Escherichia coli. In short, it runs like this: as §1
The next series deals with E. coli ATCC25922. The series is described as above. Type of series: cell-based, Escherichia coli. In a few lines: as §1
Another series concerns A. baumannii ATCCBAA-747. The description is as above. Type of series: cell-based, Acinetobacter baumannii. In a few lines: as §1
Another series deals with A. baumannii NCTC7844. The series is described as above. The series is classed as cell-based, Acinetobacter baumannii. In a few lines: as §1
The subject of a further series is A. baumannii ATCC19606. The series is described as above. The series is classed as cell-based, Acinetobacter baumannii. In a few lines:
as §1

For the next series, the system named is A. baumannii NCTC13423. The description is as above. Type of series: cell-based, Acinetobacter baumannii. In a few lines: as §1
A further series concerns P. aeruginosa ATCC 9721. Described as above. The series is classed as cell-based, Pseudomonas aeruginosa. In short, it runs like this:
as §1

The next series has as its system P. aeruginosa ATCC10145. Described as above. Type of series: cell-based, Pseudomonas aeruginosa. In short, it runs like this: as §1
Series [2] has as its system P. aeruginosa ATCCCRM-9027. Described as above. Type of series: cell-based, Pseudomonas aeruginosa. In short, it runs like this: as §1
The next series relates to P. aeruginosa ATCC27853. Described as above. Type of series: cell-based, Pseudomonas aeruginosa. In a few lines:
as §1

The nature of series [3]: Pharmacokinetic and urinary clearance studies in rats. The following applies: male, Sprague Dawley, rat, in vivo, iv, 1 mg/kg. The series is classed as in vivo. The protocol:
Drug solutions were prepared at 4 mg/mL in Normal Saline and the pH adjusted to 6-7 by adding the appropriate volume of 0.1 M H2SO4 or 4.2% NaHCO3. The solutions were filter-sterilized and stored at −80° C. before use. On the day of the experiment, drug solutions were diluted to 1 mg/mL with sterile Normal Saline.
Groups of 3 male Sprague Dawley rats were acclimatised for a minimum of 4 days before the study. Rats were anesthetized using isofluorane and a cannula was inserted into the jugular vein. One day after surgery, rats were dosed with an intravenous bolus injection of the solution at 1 mg/kg through the cannula, followed by washing with Normal Saline. Blood was collected manually through the cannula prior to administration of the compound and at 0.08, 0.25, 0.5, 1, 3, 6, 8 and 24 h thereafter. Plasma was harvested by centrifugation immediately after blood collection. Twenty-four hour urine samples were collected prior to and after administration of the compound in 0-4 h, 4-6 h, and 6-24 h intervals. Plasma and urine samples were frozen at −20° C.
Determination of the plasma and urine concentrations of the drug was performed by Liquid Chromatography Mass Spectrometry (LC-MS/MS). Before analysis the plasma and urine samples were prepared as follows. Plasma samples were thawed on the day of analysis and mixed with 3 volumes of acetonitrile containing 0.1% (v/v) formic acid and 100 ng/mL of internal standard. After centrifugation, supernatants were transferred to a 96-well plate and diluted 1:1 with water ready for analysis by LC-MS/MS. Urine samples were purified by solid-phase extraction (SPE) on Oasis HLB cartridges (Waters, UK) eluting with 100% methanol. An aliquot was transferred to a 96 well plate and diluted 1:1 with water before addition of internal standard solution, ready for analysis by LC-MS/MS.
The pharmacokinetic parameters were determined by non-compartmental analysis using WinNonLin v5.3. The urinary recovery was recorded as the percentage of intact drug recovered in the urine for the first 24 h after injection.

Details of series [4]: species or system rats. As to conditions: rat, in vivo, 8 mg/kg. How it is done:
Colistin and the example compounds were prepared in saline. Compounds were introduced via the jugular canula twice a day 7 hours apart for seven days. […] The dose regimen is set out in Table 8 below.

Setting [5] is: K. pneumoniae ATCC 4352, Table 4.
[6] abbreviates: P. aeruginosa ATCC 9721, Table 4.
[7] abbreviates: P. aeruginosa ATCCCRM-9027, Table 4.
Setting [8] is: Table 4A, different batches of cation-adjusted Muller-Hinton broth.
[9] abbreviates: K. pneumoniae ATCC4352, Table 4A, different batches of cation-adjusted Muller-Hinton broth.
[10] abbreviates: P. aeruginosa ATCC9721, Table 4A, different batches of cation-adjusted Muller-Hinton broth.
The mark [11] stands for this setting: P. aeruginosa AATCCRM 9027, Table 4A, different batches of cation-adjusted Muller-Hinton broth.

This note sets out measurements from patent publication US9234006B2, “Compounds” (Novacta Biosystems Limited, priority 2011, dated 2016).

Counter-ions that a name gives are not always drawn. Where a SMILES comes first, the peptide text is derived from it. Bridges are numbered along the chain shown (N, C = ends). [ ]: non-standard residue; d: D form. The star is where a group is joined. ξ: configuration not given here. ξβ3hGly(cHex) = NC(CC(=O)*)C1CCCCC1; Thr(3ξ) = CC(O)[C@H](N)C(=O)O; Dab = NCC[C@H](N)C(=O)O; Ava = NCCCCC(=O)O; βAla = NCCC(=O)O

For `CC(C)C[C@@H]1NC(=O)[C@@H](Cc2ccccc2)NC(=O)[C@H](CCN)NC(=O)[C@@H](NC(=O)[C@H](CCN)NC(=O)[C@@H](NC(=O)CCN)C(C)O)CCNC(=O)[C@H](C(C)O)NC(=O)[C@H](CCN)NC(=O)[C@H](CCN)NC1=O` (stereo partly drawn) [Example 4, 3-Aminopropanoyl Polymyxin B Nonapeptide, Sulphate Salt] (H-[βAla][Thr(3ξ)][Dab][Dab][Dab][dF]L[Dab][Dab][Thr(3ξ)]; lactam 4-C), the MIC against K. pneumoniae NCTC7427 (Table 4) came to 0.06 micrograms/mL; against K. pneumoniae NCTC8172 (Table 4), 2 micrograms/mL; with K. pneumoniae ATCC 4352 (setting [5]) it was 0.125 micrograms/mL; in [1] (Table 4) it was 0.25 micrograms/mL; against E. coli NCTC9001 (Table 4), 0.25 micrograms/mL; against E. coli NCTC12900 (Table 4) it was 1 micrograms/mL. Also, the MIC was determined as 0.06 micrograms/mL in the series with E. coli ATCC700928 (Table 4); 2 micrograms/mL in the series on E. coli ATCC25922 (Table 4); 1 micrograms/mL against A. baumannii ATCCBAA-747 (Table 4); 4 micrograms/mL in the series with A. baumannii NCTC7844 (Table 4); 1 micrograms/mL against A. baumannii ATCC19606 (Table 4); 1 micrograms/mL with A. baumannii NCTC13423 (Table 4). In addition, the MIC in the series with P. aeruginosa ATCC 9721 (setting [6]) stood at 0.25 micrograms/mL; in the series on P. aeruginosa ATCC10145 (Table 4), 0.5 micrograms/mL; in series [2] (setting [7]), 0.25 micrograms/mL; against P. aeruginosa ATCC27853 (Table 4), 0.125 micrograms/mL. Moreover, the total exposure AUC(0-inf) (commonly total exposure, with the tail of the curve extrapolated) in [3] amounted to 2030 ng·h/mL. Besides, in series [3], the highest level (Cmax) was 2520 ng/mL. Also, the volume of distribution (Vd) (in general, a proportionality between amount in the body and measured concentration, not a real space) in series [3] is 0.69 L/kg. In addition, the clearance (usually the volume of plasma or blood freed of the substance per unit of time) in [3] was 8.2 mL/min/kg. The half-life (as a rule, the time in which the quantity being followed falls by half) in series [3] was 1.33 h.

For `CC(C)C[C@@H]1NC(=O)[C@@H](Cc2ccccc2)NC(=O)[C@H](CCN)NC(=O)[C@@H](NC(=O)[C@H](CCN)NC(=O)[C@@H](NC(=O)CC(N)C2CCCCC2)C(C)O)CCNC(=O)[C@H](C(C)O)NC(=O)[C@H](CCN)NC(=O)[C@H](CCN)NC1=O` (stereo partly drawn) [Example 14, [3(R,S)-3-Amino-3-cyclohexanepropanoyl] Polymyxin B Nonapeptide, Sulphate Salt] ({ξβ3hGly(cHex)}-[Thr(3ξ)][Dab][Dab][Dab][dF]L[Dab][Dab][Thr(3ξ)]; lactam 3-C), the MIC against K. pneumoniae NCTC7427 (Table 4) was 0.25 micrograms/mL; with K. pneumoniae NCTC7427 (setting [8]), 0.5 micrograms/mL; in the series with K. pneumoniae NCTC8172 (Table 4), 1 micrograms/mL; against K. pneumoniae NCTC8172 (setting [8]), above 32 micrograms/mL; against K. pneumoniae ATCC 4352 (setting [5]) it was 1 micrograms/mL; against K. pneumoniae ATCC 4352 (setting [9]), 0.5 micrograms/mL. The MIC in series [1] (Table 4) is 0.25 micrograms/mL; against E. coli NCTC9001 (setting [8]), 4 micrograms/mL; against E. coli NCTC12900 (Table 4), 0.5 micrograms/mL; with E. coli NCTC12900 (setting [8]), 4 micrograms/mL; with E. coli ATCC700928 (Table 4), 0.25 micrograms/mL; against E. coli ATCC700928 (setting [8]) it was 2 micrograms/mL. Further, the MIC with E. coli ATCC25922 (Table 4) is recorded as 0.5 micrograms/mL; in the series on E. coli ATCC25922 (setting [8]), 2 micrograms/mL; against A. baumannii ATCCBAA-747 (Table 4), 0.5 micrograms/mL; against A. baumannii ATCCBAA-747 (setting [8]) it was 0.5 micrograms/mL; in the series on A. baumannii NCTC7844 (Table 4) it was 0.5 micrograms/mL; in the series on A. baumannii NCTC7844 (setting [8]), 0.5 micrograms/mL. Also, the MIC with A. baumannii ATCC19606 (Table 4) was found to be 0.5 micrograms/mL; in the series with A. baumannii NCTC13423 (Table 4), 0.06 micrograms/mL; with A. baumannii NCTC13423 (setting [8]), 0.125 micrograms/mL; with P. aeruginosa ATCC 9721 (setting [6]), 0.25 micrograms/mL; against P. aeruginosa ATCC 9721 (setting [10]), 0.25 micrograms/mL; in the series with P. aeruginosa ATCC10145 (Table 4), 0.25 micrograms/mL. In addition, the MIC with P. aeruginosa ATCC10145 (setting [8]) turned out to be 0.5 micrograms/mL; in series [2] (setting [11]) it was 0.125 micrograms/mL; in [2] (setting [7]), 0.25 micrograms/mL; with P. aeruginosa ATCC27853 (Table 4), 0.5 micrograms/mL; in the series with P. aeruginosa ATCC27853 (setting [8]) it was 0.25 micrograms/mL. In addition, the “levels of the renal biomarker NAG in urine compared to Colistin at the same dose regimen” value in series [4] was “significantly reduced levels”. Moreover, the “levels of the renal biomarker albumin in urine compared to Colistin at the same dose regimen” value in series [4] is reported as “significantly reduced levels”. Further, the “levels of the renal biomarker cystatin C in urine compared to Colistin at the same dose regimen” value in series [4] is “significantly reduced levels”.

For `CC(C)C[C@@H]1NC(=O)[C@@H](Cc2ccccc2)NC(=O)[C@H](CCN)NC(=O)[C@@H](NC(=O)[C@H](CCN)NC(=O)[C@@H](NC(=O)CCCCN)C(C)O)CCNC(=O)[C@H](C(C)O)NC(=O)[C@H](CCN)NC(=O)[C@H](CCN)NC1=O` (stereo partly drawn) [Example 15, 5-Aminopentanoyl polymyxin B nonapeptide] (H-[Ava][Thr(3ξ)][Dab][Dab][Dab][dF]L[Dab][Dab][Thr(3ξ)]; lactam 4-C), the MIC was 0.25 micrograms/mL in the series on K. pneumoniae NCTC7427 (setting [8]); 4 micrograms/mL with K. pneumoniae NCTC8172 (setting [8]); 0.5 micrograms/mL against K. pneumoniae ATCC 4352 (setting [9]); 0.5 micrograms/mL in [1] (setting [8]); 2 micrograms/mL against E. coli NCTC9001 (setting [8]); 2 micrograms/mL with E. coli NCTC12900 (setting [8]). Moreover, the MIC worked out at 1 micrograms/mL against E. coli ATCC700928 (setting [8]); 2 micrograms/mL in the series with E. coli ATCC25922 (setting [8]); 8 micrograms/mL against A. baumannii ATCCBAA-747 (setting [8]); 8 micrograms/mL against A. baumannii NCTC7844 (setting [8]); 1 micrograms/mL with A. baumannii ATCC19606 (setting [8]); 4 micrograms/mL in the series on A. baumannii NCTC13423 (setting [8]). The MIC in the series with P. aeruginosa ATCC 9721 (setting [10]) worked out at 0.125 micrograms/mL; in the series on P. aeruginosa ATCC10145 (setting [8]) it was 1 micrograms/mL; in series [2] (setting [11]), 0.125 micrograms/mL; against P. aeruginosa ATCC27853 (setting [8]) it was 0.25 micrograms/mL.
